Earlier results on one compound are cited in US6372715B1, “Use of erythropoientin and iron preparations for producing pharmaceutical combination preparations for treating rheumatic diseases” (Roche Diagnostics GmbH, priority 1997, dated 2002).

On to `[Fe]` [elementary iron], for which, where the note is “oral”, the oral iron resorption result is “about 1 mg per day”. Under “oral administration of about 300 mg Fe(III)/day”, the “oral iron resorption under extreme loading” value was “less than 3 mg per day”.
